According to patent publication US4714774A, “Benzoic acid derivatives and their production” (Takeda Chemical Industries, Ltd., priority 1984, dated 1987):

Tests used:
[1] = system: bronchoconstriction in guinea pigs due to an intravenous administration of synthetic leukotriene D4 (LTD4); test: Inhibition of LTD4-induced bronchoconstriction in guinea pigs, oral dosing (Konzett-Rossler method); type: in vivo, guinea pig (Hartley strain); conditions: Cavia porcellus, 1 h, guinea pig, p.o. one hour before LTD4 10 μg/kg i.v., inhibition of overflow volume 30 seconds after LTD4, read-out: ID50 (p.o.) (50% inhibitory dose)
Protocol: Guinea pigs of Hartley strain, both male and female, with body weights about 400 g were assigned to groups of 6 to 10 individuals, and the bronchoconstriction due to LTD4 was measured according to the method of Konzett-Rossler [Konzett, H. and Rossler, R.: Naunyn-Schmiedebergs Archiv fur Experimentelle Pathologie und Pharmakologie 195, 71-74 (1940)]. Each guinea pig was fixed in supine position under urethane anesthesia (1.5 g/kg, intraperitoneal) and the trachea was incised and connected to an artificial respiration apparatus, Rodent Respirator Model 680 [Harvard Apparatus Company, U.S.A.] via a cannula. The branch tube of this tracheal cannula was connected to Bronchospasm Transducer Model 7020 [Ugobasil Biological Researach Apparatus, Italy]. Under the conditions of 4 to 7 ml of air per stroke, 70 strokes per minute and a lung loading pressure of 10 cmH2 O, the volume of overflowing air was recorded on Rectigraph-8S (San-ei Sokki Co. Ltd., Japan) via a transducer. After administration of gallamine.triethiodide (1 mg/kg, i.v.), a solution of LTD4 in physiological saline (10 μg/kg) was intravenously administered and the bronchoconstriction elicited thereby was recorded for 15 minutes. […]
*^1 ID50 (50% inhibitory dose): Each value was calculated from […]

[2] = system: mice; test: Acute oral toxicity in mice; type: in vivo, mouse (Jcl:ICR strain); conditions: male mice
Protocol: Five 5-week-old male mice per group, of Jcl:ICR strain, weighing about 30 g each, were used. Compound (I')-1 was suspended in a 5% solution of gum arabic and administered orally at the level of 0.2 ml per 10 grams body weight.

SMILES: CCCc1c(OCCCOc2ccc(C(=O)O)cc2Br)ccc(C(C)=O)c1OC(C)=O [Compound (I')-1, 4-[3-(3-acetoxy-4-acetyl-2-propylphenoxy)propoxy]-3-bromobenzoic acid]
- ED50 [1]: 47 µmol/kg
- autopsy findings ([2]; oral 500 mg/kg, autopsy after 7 days): did not reveal any abnormalities
- symptoms attributable to the compound ([2]; single oral dose 500 mg/kg): no symptoms that could be attributable to compound (I')-1
